The text below walks through data of US9920074B2 (ACEA BIOSCIENCES INC., priority 2013, dated 2018).

Holding throughout (format): cell-based
Test [1] addresses T1, Btk (Tyr223) phosphorylation in Ramos cells (Homo sapiens, UniProt Q06187).
T1 construct: endogenous in cells; host or cells: Ramos cells (ATCC)
As to the kind of experiment: Btk Tyr223 phosphorylation inhibition, western blotting assay (Example 72). On the procedure: Ramos cell line was obtained from the American Type Culture Collection and was maintained at 37° C. with 5% CO2, in media supplemented with 10% fetal bovine serum, penicillin (100 units/mL) and streptomycin (100 μg/mL), Goat F(ab′)2 Anti-Human IgM-UNLB was obtained from SouthernBiotech.
Ramos cells were treated with compounds at indicated doses for 45 min at room temperature, followed by stimulation of 12 μg/mL of IgM for 30 min, and then lysed. Western blots were performed on the cell lysate using Phospho-Btk (Tyr223), Phospho-Btk (Tyr551), Btk, Phospho-PLCγ2 (Tyr1217), PLCγ2, Phospho-p44/42 MAPK (Erk1/2) (Thr202/Tyr204) and p44/42 MAPK (Erk1/2) antibodies (Cell Signaling Technology). The density of blotting band was acquired using ImageJ software, and the IC50 of Btk (Tyr223) phosphorylation was fitted using a non-linear regression model by GraphPad Prism version 4.0.
For orientation: In western blotting, separated proteins are transferred to a membrane and probed.

In test [2] the test system is Stat5 phosphorylation in NK-92 cells. As to the kind of experiment: Western blotting assay for Stat5. The settings on record: NK92, 1 hour, IL-2 stimulation, read-out: Stat5 inhibition. The method, boiled down: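 NK-92 cells, maintained with IL-2, were pre-treated with compound for 1 h, then stimulated with IL-2 for 15 min. Lysates were western blotted for phospho- and total Jak3 and Stat5. IC50 came from densitometry of phospho-band intensity.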

In test [3] the target is T2, Btk phosphorylation in Ramos cells (Homo sapiens, UniProt Q06187).
T2 construct: endogenous in cells; host or cells: Ramos cells (ATCC)
As to the kind of experiment: Pulse chase western blotting assay for irreversibility / binding property. The note with it: 100 nM for 45 mins, monitored 4, 6 and 8 h post removal. On the procedure: Ramos cells were treated with Compound I-1 at 100 nM for 45 min. Cells were then re-suspended in compound free media and stimulated with 6 μg/ml IgM at 0, 4, 6 or 8 hours after compound removal. Cells were then lysed after 30 mm IgM stimulation. West blotting analysis were then performed.
Ramos cells were treated with Compounds at 100 nM for 45 min. Cells were then re-suspended in compound free media and stimulated with 6 μg/ml anti-IgM at 0, 4, 6 or 8 hours after compound removal. Cells were then lysed after 30 mm anti-IgM stimulation. Western blotting analysis was then performed.

The target of test [4] is T3, Jak3 phosphorylation in NK-92 cells (Homo sapiens, UniProt P52333).
T3 construct: endogenous in cells; host or cells: NK-92 cells (ATCC)
T3 sequence (P52333 1-1124): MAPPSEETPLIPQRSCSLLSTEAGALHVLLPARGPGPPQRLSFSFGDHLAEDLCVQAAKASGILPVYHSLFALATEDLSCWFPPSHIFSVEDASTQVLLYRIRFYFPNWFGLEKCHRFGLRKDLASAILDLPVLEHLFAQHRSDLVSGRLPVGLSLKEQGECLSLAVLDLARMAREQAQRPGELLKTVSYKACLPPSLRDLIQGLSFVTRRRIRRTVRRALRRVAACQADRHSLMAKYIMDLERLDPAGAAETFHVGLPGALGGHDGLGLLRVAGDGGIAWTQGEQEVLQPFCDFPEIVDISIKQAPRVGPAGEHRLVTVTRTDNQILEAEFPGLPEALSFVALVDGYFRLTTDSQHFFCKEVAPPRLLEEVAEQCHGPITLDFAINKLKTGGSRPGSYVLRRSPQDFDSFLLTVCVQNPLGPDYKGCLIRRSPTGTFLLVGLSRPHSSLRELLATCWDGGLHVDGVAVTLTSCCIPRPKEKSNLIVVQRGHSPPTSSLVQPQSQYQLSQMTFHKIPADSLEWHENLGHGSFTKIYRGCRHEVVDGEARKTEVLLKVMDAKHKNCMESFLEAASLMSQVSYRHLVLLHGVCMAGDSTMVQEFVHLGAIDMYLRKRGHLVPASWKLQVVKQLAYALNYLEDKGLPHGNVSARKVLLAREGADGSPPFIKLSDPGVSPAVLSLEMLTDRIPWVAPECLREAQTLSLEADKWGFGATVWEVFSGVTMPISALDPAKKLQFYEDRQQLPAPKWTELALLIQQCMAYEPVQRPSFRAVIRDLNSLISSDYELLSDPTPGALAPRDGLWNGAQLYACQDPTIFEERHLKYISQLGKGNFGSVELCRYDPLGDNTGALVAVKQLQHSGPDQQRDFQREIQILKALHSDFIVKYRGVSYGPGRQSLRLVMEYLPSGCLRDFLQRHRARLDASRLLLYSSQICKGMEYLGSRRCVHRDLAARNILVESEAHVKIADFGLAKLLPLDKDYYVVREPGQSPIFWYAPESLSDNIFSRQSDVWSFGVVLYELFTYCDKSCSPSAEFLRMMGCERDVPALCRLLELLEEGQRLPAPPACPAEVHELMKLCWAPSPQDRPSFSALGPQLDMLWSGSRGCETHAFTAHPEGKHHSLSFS
As to the kind of experiment: Western blotting assay for Jak3. The settings on record: 1 hour, IL-2 stimulation, read-out: Jak3 inhibition. On the procedure:
All cell lines were obtained from the American Type Culture Collection and were maintained at 37° C. with 5% CO2. Ramos cell line was maintained in media supplemented with 10% fetal bovine serum, penicillin (100 units/mL) and streptomycin (100 μg/mL). NK-92 cell line was maintained in media supplemented with 10% fetal bovine serum and 10% horse serum, penicillin (100 units/mL) and streptomycin (100 μg/mL), IL-2 10 ng/mL. Goat F(ab′)2 Anti-Human IgM-UNLB was obtained from SouthernBiotech. IL-2 was obtained from Peprotech.
NK-92 cells were treated with compounds at the dosed indicated for 1 hour in incubator, followed by the IL-2 stimulation for 15 minutes. Cells were then collected and lysed to prepare the cellular extraction. Western blots were performed on cell lysate using Phospho-Jak3, Jak3, Phospho-Stat5, Stat5 antibodies (Cell Signaling Technology). The intensity of blotting band was acquired using Image Lab (Bio-Rad) software, and the IC50 of target was generated with GraphPad Prism.

For test [5], the target named is T1, Btk (Tyr223) phosphorylation in Ramos cells. As to the kind of experiment: Western blotting assay for Btk (Example 73). The settings on record: 45 min, 6 μg/mL anti-IgM, read-out: Btk Inhibition. A digest of the protocol: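 Ramos cells pre-treated with compound for 45 min at room temperature, then stimulated with 6 μg/mL anti-IgM for 30 min and lysed. Phospho-Btk (Tyr223) measured by Western blot band densitometry; IC50 fitted by non-linear regression.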

In test [6] the target is T4, free Btk protein from Ramos cells (Homo sapiens, UniProt Q06187).
T4 construct: endogenous in cells; host or cells: Ramos cells (ATCC)
As to the kind of experiment: Btk target site occupancy ELISA assay. The note with it: 1 h, ELISA, read-out: Btk Occupancy Assay (IC50). The method, then:
(§1) Ramos cells were treated with Compound I-1 at indicated concentrations for 1 h, followed by stimulation with 6 μg/mL of IgM for 30 mm, and then lysed. Lysates were incubated with Compound I-21 (biotin labeled) at a final concentration of 1 μM in a PBS, 0.05% Tween-20, 1% BSA solution while shaking for 1 h at room temperature. Samples were transferred to a streptavidin-coated 96-well ELISA plate and mixed while shaking for 1 h at room temperature. The Btk antibody (BD 611116, 1:1000 dilution in PBS+0.05% Tween-20+0.5% BSA) was then applied and incubated for 1 h at room temperature. After wash, goat anti-mouse-HRP (Pierce 31432, 1:1000 dilution in PBS+0.05% Tween-20+0.5% BSA) was added and incubated for 1 h at room temperature. The ELISA was developed with addition of tetramethyl benzidine (TMB) followed by Stop Solution and read at OD 450 nm.
as §1, with “Compounds” for “Compound I-1”, “anti-IgM” for “IgM”, “diluted” for “dilution”, “tetramethylbenzidine” for “tetramethyl benzidine”
On the technique in general: In an ELISA, binding on a coated surface is turned into a signal by an enzyme label.

The structures appear in SMILES notation. “Also recorded” adds a separate entry of the source. A value given as a limit tells only on which side of the number the result lay.

T2 sequence (Q06187 whole entry): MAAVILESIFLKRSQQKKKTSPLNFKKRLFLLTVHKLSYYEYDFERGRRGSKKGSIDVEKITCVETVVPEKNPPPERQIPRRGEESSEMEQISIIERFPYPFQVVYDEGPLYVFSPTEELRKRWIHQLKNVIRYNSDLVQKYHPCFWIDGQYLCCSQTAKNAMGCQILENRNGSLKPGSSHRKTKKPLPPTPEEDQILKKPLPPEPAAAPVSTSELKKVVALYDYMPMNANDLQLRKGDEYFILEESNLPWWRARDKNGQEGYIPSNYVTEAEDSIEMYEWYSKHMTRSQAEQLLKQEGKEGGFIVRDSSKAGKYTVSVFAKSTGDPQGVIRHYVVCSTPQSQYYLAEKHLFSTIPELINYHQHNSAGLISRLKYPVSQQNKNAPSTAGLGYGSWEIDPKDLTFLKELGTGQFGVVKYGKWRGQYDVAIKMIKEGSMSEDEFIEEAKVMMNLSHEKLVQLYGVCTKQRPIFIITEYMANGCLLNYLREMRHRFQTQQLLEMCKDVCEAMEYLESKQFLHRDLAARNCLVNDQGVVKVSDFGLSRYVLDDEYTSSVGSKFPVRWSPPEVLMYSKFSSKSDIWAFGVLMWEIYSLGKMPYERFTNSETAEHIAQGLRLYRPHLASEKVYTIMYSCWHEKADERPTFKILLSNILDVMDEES
T1 sequence (Q06187 whole entry): as above
T4 sequence (Q06187 whole entry): as above

With `C=CC(=O)Nc1cccc(Oc2nc(Nc3ccc(N4CCN(C)CC4)c(F)c3)ncc2OC)c1` [Compound I-2, N-(3-(2-(3-fluoro-4-(4-methylpiperazin-1-yl)phenylamino)-5-methoxypyrimidin-4-yloxy)phenyl) acrylamide], the IC50 in test [1] (Btk Tyr223 phosphorylation, 45 min, 12 μg/mL IgM, read-out: BTK Inhibition) is under 10 nM; in test [1] (treated 45 mins, read-out: inhibition IC50 of the phosphorylation of BTK protein) it was 5 nM; in test [2] it was 200 to 400 nM; in test [4], 200 to 400 nM; in test [5], at most 10 nM. In test [1] (western blot), the “reduction of the Btk Tyr223 phosphorylation in Ramos cells” value was “reduction of the Btk Tyr223 phosphorylation”. In test [3], the “inhibition of BTK phosphorylation after compound removal (irreversibility)” value is reported as “remains inhibited up to 8 his; also recorded: long term effect of the inhibition was observed after compounds removal up to 8 hours; also recorded: remains inhibited up to 8 hrs; also recorded: irreversibly inhibited the BTK phosphorylation; also recorded: inhibited the Btk phosphorylation in Ramos cells after 8 hours of removal”.
On to `C=CC(=O)Nc1cccc(Oc2nc(Nc3ccc(N4CCN(CCOC)CC4)cc3)ncc2OC)c1` [Compound I-25a, N-(3-(5-methoxy-2-(4-(4-(2-methoxyethyl)piperazin-1-yl)phenylamino)pyrimidin-4-yloxy)phenyl)acrylamide], for which the IC50 in test [2] is at least 400 nM; in test [6] it was at most 10 nM; in test [4] it was at least 400 nM; in test [5] it was at most 10 nM.
